{
  "source": "patent US20220411448A1",
  "about": "“CHROMENE-4-ONE DERIVATIVES AS BRAIN-DERIVED NEUROTROPHIC FACTOR (BDNF) MIMETICS” (FLORATEK PHARMA AG, priority 2019, published 2022)",
  "key": {"[1]": {"tested_on": "astrocytes cultures", "assay": "ROS formation (H2DCF-DA kit)", "assay_type": "cell-based, mouse", "details": "various concentrations, 2 h", "description": "ROS formation has been determined as described [Yang J et al, Lactate promotes plasticity gene expression by potentiating NMDA signalling in neurons. Proc Natl Acad Sci USA. 2014. 111(33):12228-33] using a H2DCF-DA kit (ThermoFisher) as recommended by the manufacturer. Briefly, astrocytes cultures were washed twice with HBSS and incubated for 60 min in 50 μM in HBSS at 37° C. and 5% CO2 in the presence of the dye. After two washing steps with prewarmed HBSS the cells were treated with increasing concentrations of 100 μL Compound A at 37° C. and 5% CO2. Fluorescence intensity was measured after 2 h from the same plate using a fluorescence microplate reader (Safire 2; Tecan) at an excitation wavelength of 485 nm and an emission wavelength of 528 nm.\nTo assess the effect of Compound A on ROS accumulation in primary neuron cultures, the cells were treated with various concentration of Compound A for 2 hours and ROS was measured as described (FIG. 4)."}, "[2]": {"assay": "Metabolic stability in human intestine microsomes", "assay_type": "in vitro ADME", "details": "both sexes, pooled intestine microsomes, pH 7.4, intestinal microsomes, 0.5 mg/ml protein, read-out: T1/2 IM human", "description": "(§1) Sample type: pooled liver or intestine microsomes; Species: CD1-mouse (male), human (mixed gender) Time points: 0, 10, 20, 40, 60 min cofactors, and negative control;\n(§2) Protein content: 0.5 mg/ml: Replicates: 2 with cofactors, 1 without cofactors; Cofactors: NADPH (1 mM)+UDPGA (1 mM)+15 μg/ml alamethicin Buffer: 0.1 M phosphate buffer pH 7.4, 2 mM MgCl2; Spiking solvent: 50% DMSO ( 1/100 to incubation); Quenching solvent: 2-fold volume of 75% ACN, Control: midazolam disappearance rate\n(§3) The study compounds were incubated with liver or intestine microsomes as specified above. The collected samples were stored at −20 C until thawed at room temperature, centrifuged and analyzed as presented below.\n(§4) The samples were analysed by UPLC/HR-MS (with data dependent MS/MS mode) to monitor substrate depletion (and later optionally metabolite formation). The analytical method was optimised by using the parent compound for optimum chromatographic properties (peak shape and retention) and mass spectrometric ionisation. Disappearance rate of the study compound was estimated based on relative LC/MS peak areas (o min marked as 100%), and was used to calculate in vitro half-life and clearance (and in vivo extrapolation of hepatic clearance)."}, "[3]": {"tested_on": "NO", "assay": "LPS stimulation of BV-2 microglia: NO (Griess reagent)", "assay_type": "cell-based, murine", "details": "between 0.3 and 3 μM, BV2, LPS 500 ng/ml, 24 h", "description": "The murine microglial cell line BV-2 was grown in DMEM medium supplemented with 10% FCS, 1% penicillin/streptomycin and 2 mM L-glutamine (culture medium). For LPS stimulation assay, 10000 BV-2 cells per well (uncoated 96 well plates) were plated and after 24 hours, medium was changed to serum-free treatment medium (DMEM, 2 mM L-glutamine) and cells were maintained in treatment medium for the remaining culture period. 1 h after changing cells to treatment medium, the test items were added 1 hour before LPS stimulation (Sigma-Aldrich; L6529; 1 mg/ml stock in ddH2O, final concentration in well: 500 ng/ml (dilutions in medium)). Cells treated with vehicle, cells treated with LPS alone, as well as cells treated with LPS plus reference dexamethasone at 10 μM item served as controls.\nFollowing 24 h of stimulation, cell supernatants were collected for the NO, and cytokine measurements. Levels of 2 cytokines (TNF-α, IL-6) were measured by an immunosorbent assay (U-PLEX Custom […] Cytokine, Mesoscale Discovery) according to the instructions of the manufacturer and evaluated in comparison to calibration curves provided in the kit. […] Absorbance was measured at 570 nm. Nitrosative stress was evaluated in the study samples in comparison to a NaNO2 standard curve. […]"}, "[4]": {"assay": "Metabolic stability in mouse intestine microsomes", "assay_type": "in vitro ADME", "details": "male, CD1, mouse, pooled intestine microsomes, pH 7.4, intestinal microsomes, 0.5 mg/ml protein, read-out: T1/2 IM mouse", "description": "as §1, §2, §3, §4"}, "[5]": {"tested_on": "organotypic hippocampal brain slices with IAA lesion", "assay": "Organotypic brain slices, iodoacetic acid injury: cell survival (MTT)", "assay_type": "cell-based, mouse", "details": "SND118 10 and 30 μM; SND124 30 μM; 7,8 DHF 10 μm; IAA 250 μM for 110 min", "description": "Preparation of the organotypic brain slices were performed by decapitation of the P9/P10 mouse pups, removing skin and skull and immersing brains in slicing medium (Opti-MEM 1, […]). Brains were hemisected and hippocampi were isolated. Hippocampi were placed on the cutting disc of a McIlwain Tissue Chopper. […] hippocampal slices were chopped transversely. A number of 4 slices per hippocampus were placed on porous (0.4 μM) transparent membrane inserts (Millipore) and incubated for 1 h on ice in HBSS containing 10 mM glucose. Afterwards inserts were transferred to fresh 24-well plates containing 250-300 μl culture medium (50% MEM/EBSS, 25% horse serum, 25% CMF-HBSS, 25 mM glucose, 0.5% pen/strep). Slices were maintained at 37° C. and 5% CO2.\nOn DV15, brain slices were pretreated with SND derivatives test compounds and the reference 7,8DHF at various concentrations (between […]) for 30 min, followed by the addition of iodoacetic acid (IAA) at 250 μM for 110 min, when cell survival, MMP and toxicity were measured.\nCell survival was measured by the MTT assay. For the determination of mitochondrial membrane potential, treated organotypic brain slices were loaded with the mitochondrial fluorescent dye, tetramethylrhodamine methyl ester (TMRM) at a final concentration of 100 nM in PBS and incubated for 45 min at 37° C. The TMRM containing solution was aspirated and slices were transferred into new well plates containing the appropriate amount of PBS. Fluorescence was measured with a plate-reader (Cytation 5) using wavelengths of excitation and emission of 548 and 574 nm, respectively (area scan). Values were calculated as percent of control values (vehicle control). Toxicity of the treatment was measured by LDH. No toxicity was observed."}},
  "data": [
    {"smiles": "O=c1cc(-c2ccc(CCCC[P+](c3ccccc3)(c3ccccc3)c3ccccc3)cc2)oc2c(O)c(O)ccc12", "note": "[SND118, 4-[4-(7,8-dihydroxy-4-oxo-chromen-2-yl)phenyl]butyltriphenylphosphonium bromide]", "values": [
      {"measurement": "ROS accumulation", "setting": "[1]", "result": "decrease in ROS accumulation"},
      {"measurement": "half-life at 1 μM", "setting": "[2]", "result": 30.8, "unit": "min"},
      {"measurement": "level of NO in response to LPS stimulation", "setting": "[3]", "result": "significantly decreased"},
      {"measurement": "half-life at 1 μM", "setting": "[4]", "result": 27.6, "unit": "min"},
      {"measurement": "cell survival upon IAA lesion (MTT)", "setting": "[5]", "result": "statistically increase cell survival"}
    ]}
  ]
}
